Read-outs that look alike come from different tables or passages of the source.

In experiment [1] the test system is Hep 3B cells. The experiment is described as follows: Cell viability (Celltiter-Glo), lenvatinib in combination with bicistronic ZF9-MQ1_ZF3-KRAB DS; Bliss synergy (SynergyFinder 2.0). In kind it is cell-based. Conditions: Homo sapiens, Hep3B, 72 h. As for the experimental part:
(§1) […] Cell viability (Celltiter-Glo) levels were assessed 72 hours after treatment. Bliss synergy scores calculated using SyngeryFinder 2.0 were used to determine combinatorial effect.
(§2) Bliss synergy scores calculated using SynergyFinder 2.0 were used to determine combinatorial effect. The degree of combination synergy, or antagonism, is quantified by comparing the observed drug combination response against the expected response, calculated using a reference model that assumes no interaction between drugs. The Bliss independence model assumes a stochastic process in which two drugs elicit their effects independently, and the expected combination effect can be calculated based on the probability of independent events. […] Bliss synergy scores plus lenvatinib for Hep 3B and SK-HEP-1 were 5.37 and 12.77.
A general note: ATP-based viability assays read luminescence as a measure of living cells.

Experiment [2] has as its system SK-HEP-1 cells. The description is as above. In kind it is cell-based. To be noted: Homo sapiens, SK-HEP1, 72 h. The method, then:
as §1, §2

In experiment [3] the test system is PC9 cells. The experiment is described as follows: Cell viability (CellTiter Glo), osimertinib with control or MR-32054. In kind it is cell-based. To be noted: Homo sapiens, PC-9, 72 h; read-out: IC50, reduction of viability. An excerpt:
(§3) The CellTiter Glo (Promega) assay was used according to manufacturer's instructions to assess cell viability. […] Odyssey CLx Imaging System (LICOR) using near-infrared (NIR) fluorescence was used to capture and quantify the protein images.

Experiment [4] deals with subcutaneous H1975 tumors with sensitizing EGFR mutations (L858R, T790M). Put plainly: H1975 subcutaneous tumor model, tumor growth. Details: species or system mice. Conditions: mouse, in vivo. The method, then:
Tumor growth was measured throughout the experiment (FIG. 15).
The length and width of tumors were measured three times weekly. Tumor volumes were calculated as width^2×length/2. Body weights were measured daily.

The test system of experiment [5] is osimertinib-resistant cell lines derived from H1975 (OsimR_1.25 and OsimR_1.5). The experiment is described as follows: Cell viability (CellTiter Glo) after osimertinib or MR-32380 in osimertinib-resistant lines. Format: cell-based. Conditions: OsimR_1.25 and OsimR_1.5, 72 hours, increasing doses. The method, then:
Cell viability was assessed using the CellTiter Glo (Promega) assay used according to manufacturer's instructions.

For experiment [6], the system named is Myc protein in PC9 cells. Put plainly: Myc protein by Western blot, osimertinib and/or MR-32054. In kind it is cell-based. Conditions: PC9, 48 h, 1 μM osimertinib and/or 0.5 μg/ml MR-32054 in SSOP LNPs, normalized to untreated.
The test system of experiment [7] is MYC protein in osimertinib-resistant cell lines derived from H1975 (OsimR_1.25 and OsimR_1.5). The experiment is described as follows: MYC protein level by JESS system. In kind it is cell-based. To be noted: osimertinib resistant H1975 cells, 48 hours, 1 μM osimertinib or 1 μg/ml MR-32380 in SSOP. An excerpt:
(§4) MYC protein levels were assess using a JESS system (Protein Simple). A 12-230 kDa pre-filled plate (Protein Simple) was loaded with protein lysate, antibody mix (MYC: Cell signaling technologies, actin: Cell signaling technologies, Goat anti-rabbit of mouse secondary antibodies conjugated with HRP, or fluorescent marker), and luminol master mix. The loaded plate and capillary cartridge (Protein Simple) were then transferred to the JESS system (Protein Simple) for imaging and quantification following manufacturer's protocol.

In experiment [8] the test system is MYC protein in H1975 parental cells. Put plainly: MYC protein level by JESS system. In kind it is cell-based. To be noted: 48 hours, 1 μM osimertinib or 1 μg/ml MR-32380 in SSOP.
Excerpt: as §4

Experiment [9] has as its system H1975 cells. The experiment is described as follows: cells. To be noted: Homo sapiens, NCI-H1975, 72 h, read-out: IC50, growth inhibition (cell viability).
Excerpt: as §3

As for `COc1cc2nccc(Oc3ccc(NC(=O)NC4CC4)c(Cl)c3)c2cc1C(N)=O` [lenvatinib], the IC50 in experiment [1] (ZF9-MQ1_ZF3-KRAB concentration 0 μg/mL, cell viability 72 hours after treatment, read-out: Lenvatinib IC50) turned out to be 533 nM; in [1] (ZF9-MQ1_ZF3-KRAB concentration 0.06 μg/mL, cell viability 72 hours after treatment, read-out: Lenvatinib IC50), 309 nM; in experiment [1] (ZF9-MQ1_ZF3-KRAB concentration 0.6 μg/mL, cell viability 72 hours after treatment, read-out: Lenvatinib IC50) it was 23 nM; in experiment [1] (ZF9-MQ1_ZF3-KRAB concentration 1.0 μg/mL, cell viability 72 hours after treatment, read-out: Lenvatinib IC50), 48 nM; in experiment [1] (lenvatinib without DS, read-out: half maximal inhibitory concentration (IC50) of lenvatinib), 533 nM; in experiment [2] (SK-HEP-1, 72 hours, lenvatinib without DS, read-out: IC50 of lenvatinib), 17700 nM. Also, the IC50 came to 17700 nM in experiment [2] (SK-HEP-1, ZF9-MQ1_ZF3-KRAB concentration 0 μg/mL, cell viability 72 hours after treatment, read-out: Lenvatinib IC50); 13300 nM in [2] (SK-HEP-1, ZF9-MQ1_ZF3-KRAB concentration 0.1 μg/mL, cell viability 72 hours after treatment, read-out: Lenvatinib IC50); 3860 nM in [2] (SK-HEP-1, ZF9-MQ1_ZF3-KRAB concentration 0.6 μg/mL, cell viability 72 hours after treatment, read-out: Lenvatinib IC50); 1910 nM in experiment [2] (SK-HEP-1, ZF9-MQ1_ZF3-KRAB concentration 1.0 μg/mL, cell viability 72 hours after treatment, read-out: Lenvatinib IC50).

On to `C=CC(=O)Nc1cc(Nc2nccc(-c3cn(C)c4ccccc34)n2)c(OC)cc1N(C)CCN(C)C` [osimertinib], for which the IC50 in [3] was found to be 420 nM. Further, in [4], the “tumor growth (tumor volume)” value is given as “inhibit tumor growth”. The “cell viability (sensitivity)” value in [5] is “resistant to osimertinib”. The “reduction of Myc protein levels” value in experiment [6] turned out to be 80%. Further, the MYC protein level entry in experiment [7] is given as “not affected”; in [8], “decreased MYC protein level”.

As for `CC(=O)Nc1cccc(-n2c(=O)n(C3CC3)c(=O)c3c(Nc4ccc(I)cc4F)n(C)c(=O)c(C)c32)c1` [trametinib], the IC50 in experiment [9] was found to be 140 nM.

Values taken from patent US20260256782A1, “COMBINATION THERAPIES COMPRISING MYC MODULATION” (FLAGSHIP PIONEERING INNOVATIONS V, INC., priority 2022, published 2026).
